Reference: patent publication US11999805B1, “Peptide inhibitors of CRISPR-Cas9” (priority 2020, dated 2024)
“Also recorded” adds a separate entry of the source. Read-outs that look alike come from different tables or passages of the source. No end group written: not given here.

Key:
SpyCas9 [1] = target: T1, SpyCas9 (Streptococcus pyogenes serotype M1, UniProt Q99ZW2); assay: Beacon DNA binding assay (Cas9 RNP binding to DNA substrate); design: species or system S. pyogenes; conditions: for binding of SpyCas9 RNP to DNA substrate (beacon fluorescence): peptide 40 μM, SpyCas9 500 nM, DNA substrate 50 nM
T1 sequence (Q99ZW2 whole entry): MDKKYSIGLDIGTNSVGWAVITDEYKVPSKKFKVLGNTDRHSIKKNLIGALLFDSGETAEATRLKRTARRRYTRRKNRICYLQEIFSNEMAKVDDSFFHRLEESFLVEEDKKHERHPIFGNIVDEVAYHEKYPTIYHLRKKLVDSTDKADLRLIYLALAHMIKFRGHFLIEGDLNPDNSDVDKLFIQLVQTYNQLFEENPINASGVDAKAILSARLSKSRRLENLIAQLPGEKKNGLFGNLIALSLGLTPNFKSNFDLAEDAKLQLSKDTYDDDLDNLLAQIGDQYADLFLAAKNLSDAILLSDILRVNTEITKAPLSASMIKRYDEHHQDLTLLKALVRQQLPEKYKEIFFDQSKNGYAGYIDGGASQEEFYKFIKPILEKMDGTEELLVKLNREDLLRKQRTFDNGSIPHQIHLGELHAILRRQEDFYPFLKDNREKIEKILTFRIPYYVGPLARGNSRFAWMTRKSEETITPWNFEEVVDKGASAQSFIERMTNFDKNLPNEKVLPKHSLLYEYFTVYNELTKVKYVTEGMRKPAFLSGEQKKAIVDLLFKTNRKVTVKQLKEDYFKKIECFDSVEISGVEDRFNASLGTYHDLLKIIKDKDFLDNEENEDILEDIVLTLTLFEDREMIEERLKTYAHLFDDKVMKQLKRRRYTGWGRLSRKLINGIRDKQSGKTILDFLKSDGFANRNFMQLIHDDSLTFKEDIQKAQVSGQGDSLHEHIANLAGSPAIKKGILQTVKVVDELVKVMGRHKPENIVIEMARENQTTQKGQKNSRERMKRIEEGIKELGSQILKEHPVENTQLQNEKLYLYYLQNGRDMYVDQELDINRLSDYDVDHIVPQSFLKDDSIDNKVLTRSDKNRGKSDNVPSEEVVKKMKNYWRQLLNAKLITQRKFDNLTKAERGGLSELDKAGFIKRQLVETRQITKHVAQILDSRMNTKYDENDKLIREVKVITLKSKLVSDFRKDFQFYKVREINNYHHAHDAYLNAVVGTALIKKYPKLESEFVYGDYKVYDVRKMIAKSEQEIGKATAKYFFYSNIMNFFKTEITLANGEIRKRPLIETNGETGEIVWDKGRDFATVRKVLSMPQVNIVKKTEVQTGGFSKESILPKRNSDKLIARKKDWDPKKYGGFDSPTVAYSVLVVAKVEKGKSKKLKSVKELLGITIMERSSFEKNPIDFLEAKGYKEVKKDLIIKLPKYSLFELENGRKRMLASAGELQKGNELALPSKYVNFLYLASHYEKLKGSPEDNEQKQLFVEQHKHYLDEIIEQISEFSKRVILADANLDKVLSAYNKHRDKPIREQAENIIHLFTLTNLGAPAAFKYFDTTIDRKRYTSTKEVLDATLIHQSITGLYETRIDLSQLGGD
Procedure: To determine the mechanism of action of these peptide inhibitors, a binding assay was performed to determine if inhibitors are blocking Cas9 RNP binding to the DNA substrate. The beacon DNA binding assay was adapted and performed as described in Mekler V, Minakhin L, Semenova E, Kuznedelov K, Severinov K. 2016. Kinetics of the CRISPR-Cas9 effector complex assembly and the role of 3′-terminal segment of guide RNA. Nucleic Acids Res 44:2837-45. DNA probes were prepared from unmodified and chromophore-labeled DNA oligonucleotides synthesized by Integrated DNA Technologies. Equimolar amounts of synthetic complementary strands were mixed in a buffer containing 40 mM Tris, pH 7.9, 100 mM NaCl; heated for 2 min at 90° C. and slowly cooled to 20° C. The PAM-distal ends of the beacon target and non-target strands were labeled with fluorescein and Iowa Black® FQ, respectively. Both beacons mimic native target DNA and bind Cas9/sgRNA. The fluorescent signal is increased when Cas9 binds the DNA substrate and a helix forms with the target substrate strand and gRNA resulting in dissociation of oligo 3, leading to increase in fluorescent signal.
Data are the average ±SD of three replicate wells.

SpyCas9 [2] = target: T1, SpyCas9; assay type: biochemical, S. pyogenes; conditions: for IC50: read-out: SpyCas9 IC50, FRET cleavage assay, concentration curves, 0.5 μM Cas9, 50 nM DNA substrate
Procedure: To determine whether synthetic peptides would inhibit Cas9 cleavage activity, 200 peptide sequences were selected for chemical synthesis based on the following criteria: (1) peptides enriched after independent panning on RNP immobilized on both the Monomeric Avidin and NeutrAvidin columns, (2) Higher Boman index (>2.3), the computed potential protein-protein interaction for a given amino-acids sequence (3) a predicted instability index below 50. Theses peptides were screened at 200 μM for inhibition of Cas9 cleavage activity using the recently developed HT FRET-based assay using a dual-quencher substrate with low background and high sensitivity. See Seamon K J, Light Y K, Saada E A, Schoeniger J S, Harmon B. 2018. Versatile High-Throughput Fluorescence Assay for Monitoring Cas9 Activity. Analytical Chemistry 90:6913-6921. This assay specifically measures DNA substrate cleavage, and is able to differentiate between cleavage of a single strand of DNA and cleavage of both DNA strands.
Reactions (10 μL tubes) were set up in Cas9 reaction buffer (20 mM Tris-HCl, pH 7.5, 100 mM NaCl, 5 mM MgCl2, 0.1 mM EDTA) containing 50 nM annealed DNA substrate, 1.5 μM sgRNA, and 500 nM Cas9 in the wells of a black low volume 384-well plate. The reactions were incubated for 1 hour at ambient temperature; then, 10 μL of 8 M Gdn-HCl was added to quench the reaction before the plates were covered with an aluminum seal and incubated at 80° C. for 10 minutes. The fluorescence was read in a Tecan Infinite M1000 or SPARK plate spectrofluorometer (Tecan).
The peptides were diluted 2-fold from 200 to 12.5 μM and incubated for 1 hour with 500 nM SpyCas9, gRNA prior to addition of 50 nM FRET DNA substrate for 1 hour. […] Data are the average ±SD of three replicate wells.
(§1) For the 11 original peptides reactions (10 μL) were set up in Cas9 reaction buffer [20 mM Tris-HCl, pH 7.5, 100 mM NaCl, 5 mM MgCl2, 0.1 mM EDTA] containing 50 nM annealed DNA substrate, 1.5 μM sgRNA, and 0.5 μM Cas9 in the wells of a black low volume 384-well plate. The reactions were incubated for 1 hour at ambient temperature with the indicated concentration of peptide; then, 10 μL, of 8 M Guanidine-HCl was added to quench the reaction. The plates were covered with an aluminum seal and incubated at 75° C. for 10 minutes and cooled down to RT before reading.
(§2) The % inhibition was determined by subtracting normalized relative fluorescent value to Cas9 without peptides (% activity) from 100% cleavage activity of CjeCas9, SauCas9, SpyCas9 by FRET assay. Data are the average ±SD of eleven replicate wells from three technical replicates at the indicated concentration of peptides.
(§3) FIGS. 12A, 12B, and 12C show graphs of measurements and fitted curves of concentration dependent inhibition of mutated peptides against Cas9 variants. The inhibition was measured as relative fluorescent value to Cas9 without peptides (% activity) of CjeCas9 (line with squares), SauCas9 (line with diamonds), SpyCas9 (line with triangles) by FRET assay with the indicated concentration of peptides and compared to original peptides (line with circles). Data are the average ±SD of eleven replicate wells from three technical replicates.

SauCas9 = target: T2, SauCas9 (Staphylococcus aureus, UniProt J7RUA5); assay: HT FRET-based Cas9 cleavage activity assay, SauCas9; assay type: biochemical, S. aureus
T2 construct: made in house; host or cells: E. coli BL21(star)DE3
T2 sequence (J7RUA5 whole entry): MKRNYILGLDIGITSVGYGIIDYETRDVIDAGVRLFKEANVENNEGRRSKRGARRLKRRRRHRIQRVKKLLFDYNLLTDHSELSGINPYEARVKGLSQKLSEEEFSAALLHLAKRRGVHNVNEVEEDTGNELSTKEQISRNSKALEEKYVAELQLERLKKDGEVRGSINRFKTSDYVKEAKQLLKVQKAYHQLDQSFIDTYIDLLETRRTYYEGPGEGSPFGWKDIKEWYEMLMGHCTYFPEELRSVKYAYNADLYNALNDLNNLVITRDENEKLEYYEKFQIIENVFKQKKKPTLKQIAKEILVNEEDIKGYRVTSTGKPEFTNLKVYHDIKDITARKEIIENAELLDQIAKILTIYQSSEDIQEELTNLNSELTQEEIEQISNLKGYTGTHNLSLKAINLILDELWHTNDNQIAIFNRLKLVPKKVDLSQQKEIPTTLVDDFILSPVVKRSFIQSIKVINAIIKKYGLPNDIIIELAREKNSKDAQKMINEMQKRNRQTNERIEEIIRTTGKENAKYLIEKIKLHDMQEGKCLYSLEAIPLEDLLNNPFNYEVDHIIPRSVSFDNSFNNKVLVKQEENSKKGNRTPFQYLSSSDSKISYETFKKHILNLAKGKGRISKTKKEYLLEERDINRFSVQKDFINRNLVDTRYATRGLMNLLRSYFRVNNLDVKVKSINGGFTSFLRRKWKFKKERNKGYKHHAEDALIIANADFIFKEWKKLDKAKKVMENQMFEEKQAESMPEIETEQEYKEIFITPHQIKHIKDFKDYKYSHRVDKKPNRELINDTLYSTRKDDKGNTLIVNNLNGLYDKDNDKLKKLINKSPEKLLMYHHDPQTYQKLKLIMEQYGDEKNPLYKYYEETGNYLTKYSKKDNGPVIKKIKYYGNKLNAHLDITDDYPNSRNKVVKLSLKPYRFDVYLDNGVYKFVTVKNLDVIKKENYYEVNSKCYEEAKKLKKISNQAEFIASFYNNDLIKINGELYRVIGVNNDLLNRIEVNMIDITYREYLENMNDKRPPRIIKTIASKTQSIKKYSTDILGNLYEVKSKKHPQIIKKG
Procedure: (§4) To evaluate the ability of identified peptides to inhibit other Cas9 variants, SauCas9 and CjeCas9 cleavage assays were used to quantitatively measure changes in activity. […] The inhibition was measured as relative fluorescent value to Cas9 without peptides (% activity) of CjeCas9 (Top), SauCas9 (middle), SpyCas9 (bottom) by FRET assay with the indicated concentration of peptides. Data are the average ±SD of eleven replicate wells from three technical replicates.
as §1, §2, §3

CjeCas9 = target: T3, CjeCas9 (Campylobacter jejuni subsp. jejuni serotype O:2, UniProt Q0P897); assay: HT FRET-based Cas9 cleavage activity assay, CjeCas9; assay type: biochemical, C. jejuni
T3 construct: made in house; host or cells: E. coli BL21(star)DE3
T3 sequence (Q0P897 whole entry): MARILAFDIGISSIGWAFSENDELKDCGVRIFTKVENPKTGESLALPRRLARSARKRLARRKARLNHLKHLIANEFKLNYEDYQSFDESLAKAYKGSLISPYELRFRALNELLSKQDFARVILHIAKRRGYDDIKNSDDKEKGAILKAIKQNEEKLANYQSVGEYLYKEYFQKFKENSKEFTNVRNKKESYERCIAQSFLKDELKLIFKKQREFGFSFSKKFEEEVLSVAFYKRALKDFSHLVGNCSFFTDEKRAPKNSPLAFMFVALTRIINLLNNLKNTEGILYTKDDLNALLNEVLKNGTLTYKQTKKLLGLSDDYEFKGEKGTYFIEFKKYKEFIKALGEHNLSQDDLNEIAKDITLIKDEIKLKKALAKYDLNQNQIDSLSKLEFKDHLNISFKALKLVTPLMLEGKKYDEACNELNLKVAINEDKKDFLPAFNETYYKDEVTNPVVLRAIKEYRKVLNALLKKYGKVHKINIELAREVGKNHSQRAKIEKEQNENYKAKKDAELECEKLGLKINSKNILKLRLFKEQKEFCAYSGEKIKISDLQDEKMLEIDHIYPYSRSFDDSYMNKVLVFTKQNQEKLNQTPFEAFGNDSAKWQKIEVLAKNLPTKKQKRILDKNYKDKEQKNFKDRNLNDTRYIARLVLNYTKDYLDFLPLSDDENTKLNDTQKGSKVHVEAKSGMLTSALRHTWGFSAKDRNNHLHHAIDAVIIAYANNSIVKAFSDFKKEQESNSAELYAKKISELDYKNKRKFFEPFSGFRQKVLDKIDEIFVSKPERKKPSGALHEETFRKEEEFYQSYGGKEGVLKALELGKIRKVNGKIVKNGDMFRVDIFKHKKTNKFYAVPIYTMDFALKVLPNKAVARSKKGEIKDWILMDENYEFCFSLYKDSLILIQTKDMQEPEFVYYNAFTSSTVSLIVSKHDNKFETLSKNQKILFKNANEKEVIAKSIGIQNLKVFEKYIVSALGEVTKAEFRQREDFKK
Procedure: as §4, §1, §2, §3

Question: How did the “mechanism subset: blocks Cas9 RNP binding to target DNA or other mechanism” value (“mechanism subset” for short) (SpyCas9 [1]) turn out when KERRRSLMQLSVKSNSLFLGGT [Peptide 82] was run?
Answer: inhibit CACs9 RNP cleavage by another mechanism

Question: How did the IC50 (SpyCas9 [2]) turn out when DRSHKILLRHSGCLYRFLQRYL [Peptide 90-2-5] was run?
Answer: 86.5 µM

Question: And the IC50 (SauCas9)?
Answer: 91.3 µM

Question: What about the IC50 (CjeCas9) of the same sequence?
Answer: > 200 µM

Question: Which “mechanism subset” value (SpyCas9 [1]) does the source give for LRQISNTSIVMGTTPSSVAVCG [Peptide 61] here?
Answer: inhibit CACs9 RNP cleavage by another mechanism

Question: What does the source list for “PNVKIGKAHLTTIMSTMPLIIC [Peptide 63-2-27]”?
Answer: IC50 (SpyCas9 [2]): 81.6 µM; IC50 (SauCas9): 95.3 µM; IC50 (CjeCas9): > 200 µM

Question: How did the IC50 (SpyCas9 [2]) turn out when “KERHRSLMRTTVKYYSLCLGGT [Peptide 82-2-12]” was run?
Answer: 35.3 µM

Question: What about the IC50 (SauCas9) of the same sequence?
Answer: 69 µM

Question: What about the IC50 (CjeCas9) of the same sequence?
Answer: 87.1 µM

Question: LNVKIGNAHLTTIMSTMPLVLC [Peptide 63] was tested. Which “mechanism subset” value (SpyCas9 [1]) did it give?
Answer: inhibit CACs9 RNP cleavage by another mechanism

Question: RDPNSRRSHIARLLAMSLTWYS [Peptide 99-2-2] was tested. Which IC50 (SpyCas9 [2]) did it give?
Answer: 56.2 µM

Question: What about the IC50 (SauCas9) of the same sequence?
Answer: 110 µM

Question: And the IC50 (CjeCas9)?
Answer: > 200 µM

Question: “DRSHKILLCYNGRNKRLLLRRL [Peptide 90-2-18]” was tested. Which IC50 (SpyCas9 [2]) did it give?
Answer: 47.2 µM

Question: And the IC50 (SauCas9)?
Answer: 68.2 µM

Question: And the IC50 (CjeCas9)?
Answer: 74.9 µM

Question: Which “mechanism subset” value (SpyCas9 [1]) does the source give for TESIRSYFAMTIRRNH [Peptide 80] here?
Answer: block Cas9 RNP binding to the target DNA

Question: Which results are given for “DRSQKIFLRYNRCRYRLLQRGL [Peptide 90-1-18]”?
Answer: IC50 (SpyCas9 [2]): 48.4 µM; IC50 (SauCas9): 58.4 µM; IC50 (CjeCas9): 73.6 µM

Question: What does the source list for “DGSLKILLRYNGCHYRLLQRSL [Peptide 90-3-50]”?
Answer: IC50 (SpyCas9 [2]): 65.5 µM; IC50 (SauCas9): > 200 µM; IC50 (CjeCas9): > 200 µM

Question: For “LNVKIENAHLTTNLSTMPLVLC [Peptide 63-2-87]”, which IC50 (SpyCas9 [2]) is on record?
Answer: > 200 µM

Question: What about the IC50 (SauCas9) of the same sequence?
Answer: > 200 µM

Question: What about the IC50 (CjeCas9) of the same sequence?
Answer: 90.9 µM

Question: How did the IC50 (SpyCas9 [2]) turn out when “RERRRSLIQISVKSYPLFLGGT [Peptide 82-2-28]” was run?
Answer: 72.5 µM

Question: What about the IC50 (SauCas9) of the same sequence?
Answer: 153 µM

Question: And the IC50 (CjeCas9)?
Answer: > 200 µM

Question: With “VSAYSADESLLIRRRRRRRRAG [Peptide 60-1-56]” as the sequence, how does the IC50 (SpyCas9 [2]) read?
Answer: 44.6 µM

Question: And the IC50 (SauCas9)?
Answer: 62.9 µM

Question: And the IC50 (CjeCas9)?
Answer: 69.2 µM

Question: Which results are given for GDPNSRRSHIARLLAMSLTWYS [Peptide 99-1-1]?
Answer: IC50 (SpyCas9 [2]): 63.2 µM; IC50 (SauCas9): 99.3 µM; IC50 (CjeCas9): 105 µM

Question: How did the “mechanism subset” value (SpyCas9 [1]) turn out when RLYHQCFLACLIDRQSPRNV [Peptide 73] was run?
Answer: block Cas9 RNP binding to the target DNA

Question: What about the “binding of SpyCas9 RNP to DNA substrate (beacon fluorescence)” value (SpyCas9 [1]) of the same sequence?
Answer: unaltered; also recorded: did not reduce substrate binding

Question: RRSHIAWLLAMSLTWYS [Peptide 99] was tested. Which “activity of SpyCas9 (% activity, FRET)” value (SpyCas9 [2]; peptide 100 μM) did it give?
Answer: significantly reduced activity

Question: And the “activity of SpyCas9 (% activity, FRET)” value (SpyCas9 [2]; peptide 200 μM)?
Answer: significantly reduced activity

Question: What about the “activity of SauCas9 (% activity, FRET)” value (SauCas9; peptide 100 μM) of the same sequence?
Answer: significantly reduced activity

Question: And the “activity of SauCas9 (% activity, FRET)” value (SauCas9; peptide 200 μM)?
Answer: significantly reduced activity

Question: And the “activity of CjeCas9 (% activity, FRET)” value (CjeCas9; peptide 100 μM)?
Answer: significantly reduced activity

Question: What about the “activity of CjeCas9 (% activity, FRET)” value (CjeCas9; peptide 200 μM) of the same sequence?
Answer: significantly reduced activity

Question: What about the “mechanism subset” value (SpyCas9 [1]) of the same sequence?
Answer: block Cas9 RNP binding to the target DNA

Question: And the “binding of SpyCas9 RNP to DNA substrate (beacon fluorescence)” value (SpyCas9 [1])?
Answer: significantly reduced; also recorded: reducing binding
